Test results as given in patent US9125904B1, “Biphenyl imidazoles and related compounds useful for treating HCV infections” (ACHILLION PHARMACEUTICALS, INC., priority 2010, dated 2015).

These compounds were tested on HCV replicon (assay: HCV replicon replication assay (NPT ELISA)). Conditions: Hepatitis C virus, 72 h; Huh-7 HCV replicon-containing cells, three days; class symbols; read-out: EC50.
Assay type: cell-based
Protocol: Compounds claimed herein are tested for the ability to inhibit viral replication of the Hepatitis C replicon in cultured cells in which the HCV replicon construct has been incorporated. The HCV replicon system was described by Bartenschlager, et. al (Science, 285, pp. 110-113 (1999)). The replicon system is predictive of in vivo anti-HCV activity; compounds that are active in humans uniformly evidence activity in the replicon assay.
In this assay HCV replicon containing cells are treated with different concentrations of the test compound to ascertain the ability of the test compound to suppress replication of the HCV replicon. As a positive control, HCV replicon-containing cells are treated with different concentrations of interferon alpha, a known inhibitor of HCV replication. The replicon assay system includes Neomycin Phosphotransferase (NPT) as a component of the replicon itself in order to detect the transcription of replicon gene products in the host cell. Cells in which the HCV replicon is actively replicating have high levels of NPT; the level of NPT is proportional to HCV replication. […] The NPT level of each sample is measured using a captured ELISA.
A protocol for testing compounds for the ability to inhibit viral replication of the Hepatitis C replicon cultured cells in which the replicon construct has been incorporated, follows.
The HCV replicon contains, 5′-3′, the HCV-IRES, the neomycin phosphotransferase (neo) gene, the IRES of encephalomyocarditis virus, which directs translation of HCV sequences NS3 to NS5B, and the 3′-NTR. The sequence of the HCV replicon has been deposited in GenBank (Accession no. AJ242652).
The replicon is transfected into Huh-7 cells using standard methods such as electroporation.
The equipment and materials include, but are not limited to, Huh-7 HCV replicon-containing cells, maintenance media (DMEM (Dulbecco's modified Eagle media) supplemented with 10% FBS, L-glutamine, non-essential amino acids, penicillin (100 units/ml), streptomycin (100 micrograms/ml), and 500 micrograms/ml of Geneticin (G418), screening media (DMEM supplemented with 10% FBS, L-glutamine, non-essential amino acids, penicillin (100 units/ml) and streptomycin (100 micrograms/ml)), 96 well tissue culture plates (flat bottom), 96 well plates (U bottom for drug dilution), Interferon alpha for positive control, fixation reagent (such as methanol: acetone), primary antibody (rabbit anti-NPTII), secondary antibody: Eu-N1 1, and enhancement solution.
HCV replicon-containing cells support high levels of viral RNA replicon replication when their density is suitable. Over-confluency causes decreased viral RNA replication. Therefore, cells must be kept growing in log phase in the presence of 500 micrograms/ml of G418. Generally, cells should be passed twice a week at 1: 4-6 dilution. Cell maintenance is conducted as follows:
HCV replicon-containing cells are examined under a microscope to ensure that cells growing well. Cells are rinsed once with PBS and 2 ml trypsin is added. The cell/trypsin mixture is incubated at 37° C. in a CO2 incubator for 3-5 minutes. After incubation 10 ml of complete media is added to stop the trypsinization reaction. Cells are blown gently, put into a 15 ml tube, and spun at 1200 rpm for 4 minutes. The trypsin/medium solution is removed. Medium (5 ml) is added and the cells are mixed carefully. The cells are counted.
The cells are then seeded onto 96-well plates at a density of 6000-7500 cells/100 microliters/well (6−7.5×10^5 cells/10 ml/plate). The plates are then incubated at 37° C. in a 5% CO2 incubator.
Cells are examined under a microscope approximated 24 hours after seeding and prior to adding drugs. If counting and dilution were performed correctly, cells are 60-70% confluent and nearly all cells should attach and spread evenly in the well.
HCV replicon-containing cells are rinsed with once PBS once; 2 mls of trypsin are then added. Cells are incubated at 37° C. in a 5% CO2 incubator for 3-5 minutes. […]
In the case of `CNC(=O)C[C@H](C(=O)N1CCC[C@@H]1c1ncc(-c2ccc(-c3ccc(-c4cnc([C@@H]5CCCN5C(=O)[C@@H](CC(=O)NC)C(C)C)[nH]4)cc3)cc2)[nH]1)C(C)C` [Compound 40, (S)-3-((R)-2-(5-(4′-(2-((S)-1-((S)-2-isopropyl-4-(methylamino)-4-oxobutanoyl)pyrrolidin-2-yl)-1H-imidazol-5-yl)biphenyl-4-yl)-1H-imidazol-2-yl)pyrrolidine-1-carbonyl)-N,4-dimethylpentanamide], the EC50 is reported as less than 5 nM. `COC(=O)N[C@H](C(=O)N1CCc2ccc(NC(=O)c3ccc(-c4ccc(-c5cnc([C@@H]6CCCN6C(=O)[C@@H](NC(=O)OC)C(C)C)[nH]5)cc4)cc3)cc21)C(C)C` [Compound 41] gave an EC50 of less than 5 nM. In the case of `COC(=O)NC(C(=O)N1CCC[C@H]1Cc1nc(-c2ccc(-c3ccc(-c4cnc([C@@H]5CCCN5C(=O)[C@@H](NC(=O)OC)C(C)C)[nH]4)cc3)cc2)c[nH]1)C(C)C` (stereo partly drawn) [Compound 42], the EC50 is reported as less than 5 nM. For `COC(=O)N[C@H](C(=O)N1CCC[C@H]1c1ncc(-c2ccc(-c3ccc(-c4c[nH]c([C@@H]5C6CC([C@H](O)C6)N5C(=O)[C@@H](NC(=O)OC)C(C)C)n4)cc3)cc2)[nH]1)C(C)C` (stereo partly drawn) [Compound 45], the EC50 was less than 50 nM. For `COC(=O)N[C@H](C(=O)N1CCC[C@H]1c1ncc(-c2ccc(-c3ccc(-c4c[nH]c([C@@H]5C6CC([C@@H](O)[C@H]6O)N5C(=O)[C@@H](NC(=O)OC)C(C)C)n4)cc3)cc2)[nH]1)C(C)C` (stereo partly drawn) [Compound 46], the EC50 was less than 50 nM. `COC(=O)N[C@H](C(=O)N1CCC[C@H]1c1nc(-c2ccc(-c3ccc(-c4c[nH]c([C@@H]5C6CCC(CC6)N5C(=O)[C@@H](NC(=O)OC)C(C)C)n4)cc3)cc2)c[nH]1)C(C)C` [Compound 47] showed an EC50 of less than 5 nM. With `COC(=O)N[C@H](C(=O)N1CCCC[C@H]1c1nc(-c2ccc(-c3ccc(-c4c[nH]c([C@@H]5CCCN5C(=O)[C@@H](NC(=O)OC)C(C)C)n4)cc3)cc2)c[nH]1)C(C)C` [Compound 48] the EC50 was less than 5 nM. In the case of `COC(=O)N[C@H](C(=O)N1CCCCC1c1nc(-c2ccc(-c3ccc(-c4c[nH]c(C5C6CCC(C6)N5C(=O)[C@@H](NC(=O)OC)C(C)C)n4)cc3)cc2)c[nH]1)C(C)C` (stereo partly drawn) [Compound 49], the EC50 is reported as less than 5 nM. For `COC(=O)N[C@H](C(=O)N1CCCCC1c1nc(-c2ccc(-c3ccc(-c4c[nH]c(C5CCCCN5C(=O)[C@@H](NC(=O)OC)C(C)C)n4)cc3)cc2)c[nH]1)C(C)C` (stereo partly drawn) [Compound 50], the EC50 was less than 5 nM. `COC(=O)NC(C(=O)N1C2CCC(CC2)C1c1ncc(-c2ccc(-c3ccc(-c4c[nH]c([C@@H]5C6CCC(CC6)N5C(=O)C(NC(=O)OC)C(C)C)n4)cc3)cc2)[nH]1)C(C)C` (stereo partly drawn) [Compound 51] was tested, and the EC50 was less than 5 nM. For `COC(=O)N[C@H](C(=O)N1C2CC(CN(C)C2)C1c1nc(-c2ccc(-c3ccc(-c4cnc([C@@H]5CCCN5C(=O)[C@@H](NC(=O)OC)C(C)C)[nH]4)cc3)cc2)c[nH]1)C(C)C` (stereo partly drawn) [Compound 52], the EC50 was less than 50 nM. Compound `COC(=O)N[C@H]1CC[C@H]2CC[C@@H](c3ncc(-c4ccc(-c5ccc(-c6cnc([C@@H]7CCCN7C(=O)[C@@H](NC(=O)OC)C(C)C)[nH]6)cc5)cc4)[nH]3)N2C1=O` [Compound 55] has an EC50 of less than 50 nM. Work on `COC(=O)N[C@H](C(=O)N1C2CCC(C2)C1c1ncc(-c2ccc(-c3ccc(-c4cnc(C5C6CCC(C6)N5C(=O)[C@@H](NC(=O)OC)C(C)C)[nH]4)cc3)cc2)[nH]1)C(C)C` (stereo partly drawn) [Compound 56, dimethyl (2S,2′S)-1,1′-(3,3′-(5,5′-(biphenyl-4,4′-diyl)bis(1H-imidazole-5,2-diyl))bis(2-azabicyclo[2.2.1]heptane-3,2-diyl))bis(3-methyl-1-oxobutane-2,1-diyl)dicarbamate] yielded an EC50 of less than 5 nM.

Same assay, conditions: Hepatitis C virus, 72 h; Huh-7 HCV replicon-containing cells, three days; numeric cells; read-out: EC50
`COC(=O)N[C@H](C(=O)N1C2CCC(C2)[C@H]1c1ncc(-c2ccc(Br)cc2)[nH]1)C(C)C` (stereo partly drawn) [Compound 54, methyl (2S)-1-((3S)-3-(5-(4-bromophenyl)-1H-imidazol-2-yl)-2-azabicyclo[2.2.1]heptan-2-yl)-3-methyl-1-oxobutan-2-ylcarbamate] showed an EC50 of less than 100 nM.

Same assay, conditions: Hepatitis C virus, Huh-7
In the case of `CNC(=O)C[C@H](C(=O)N1CCC[C@@H]1c1ncc(-c2ccc(-c3ccc(-c4cnc([C@@H]5CCCN5C(=O)[C@@H](CC(=O)NC)C(C)C)[nH]4)cc3)cc2)[nH]1)C(C)C` [Compound 40, (S)-3-((R)-2-(5-(4′-(2-((S)-1-((S)-2-isopropyl-4-(methylamino)-4-oxobutanoyl)pyrrolidin-2-yl)-1H-imidazol-5-yl)biphenyl-4-yl)-1H-imidazol-2-yl)pyrrolidine-1-carbonyl)-N,4-dimethylpentanamide], the EC50 is reported as no more than 10000 nM.
